Our source for the inhibition values is patent US20020183384A1, “Methods of treating nuclear factor-kappa B mediated diseases and disorders” (priority 2001, published 2002).

For this experiment, the system named is NF-κB mediated transcription. Briefly: NF-κB driven β-lactamase reporter assay in ECV-304 NF-κB.βlaZ cells (AURORA CCF2 fluorescence). The class given is cell-based, human. The settings on record: Homo sapiens, 10 μM compound, ECV-304 NF-κB.βlaZ cells stimulated with 10 ng/mL TNF-α or 100 pg/mL IL-1β, 6 hours at 37° C., inhibition of maximum blue/green ratio, read-out: Percent Inhibition at 10 μM. Put shortly: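 ECV-304 cells (clone 1E8) stably carrying a β-lactamase reporter driven by 5 HIV-1 NF-κB sites, plated in M-199 with 2% FBS, compound at 10 μM final. CCF2 read at 395 nm excitation, blue 460 nm/green 530 nm emission ratio; IC50 from dose-response curve.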
A general note: A reporter such as luciferase makes a cellular process visible.

The structures appear in SMILES notation. Like-named read-outs stand apart in the source and are kept apart here.

The inhibition is the share of the control response that was lost under treatment. Consider `CC1CCC(C(C)C)C(OC(=O)NS(=O)(=O)Oc2c(C(C)C)cccc2C(C)C)C1` (stereo not drawn) [Example 138, Carbamic acid, [[2,6-bis(1-methylethyl)phenoxy]sulfonyl]-, 5-methyl-2-(1-methylethyl)cyclohexyl ester], for which the inhibition at 10 µM (ECV-304, 6 h) amounted to 66.2%.
Still for that read-out and setting: to `CC(C)c1cccc(C(C)C)c1OS(=O)(=O)NC(=O)Sc1c(C(C)C)cccc1C(C)C` [Example 139, Carbamothioic acid, [[2,6-bis(1-methylethyl)phenoxy]sulfonyl]-, S-[2,6-bis(1-methylethyl)phenyl] ester] belongs 65.5%.
The same measure, in the same setting: to `CCc1cccc(CC)c1COC(=O)NS(=O)(=O)Oc1c(C(C)C)cccc1C(C)C` [Example 140, Carbamic acid, [[2,6-bis(1-methylethyl)phenoxy]sulfonyl]-, (2,6-diethylphenyl)methyl ester] belongs 38.7%.
Turning to `CC(C)c1cccc(C(C)C)c1OC(=O)NS(=O)(=O)NC(=O)Oc1c(C(C)C)cccc1C(C)C` [Example 141, Carbamic acid, sulfonylbis-, bis[2,6-bis(1-methylethyl)phenyl] ester], the inhibition at 10 µM is less than 10%.
As to `CC(C)c1cccc(C(C)C)c1OS(=O)(=O)NC(=O)OC1[C@H](C(C)C)CCC[C@H]1C(C)C` [Example 142, Carbamic acid, [[2,6-bis(1-methylethyl)phenoxy]sulfonyl]-, (2S,6S)-2,6-bis(1-methylethyl)cyclohexyl ester], the inhibition at 10 µM (ECV-304, 6 h) is 53.9%.
In the case of `CC(C)c1cc(C(C)(C)C)cc(C(C)C)c1OC(=O)NS(=O)(=O)Oc1c(C(C)C)cccc1C(C)C` [Example 143, Carbamic acid, [[2,6-bis(1-methylethyl)phenoxy]sulfonyl]-, 4-(1,1-dimethylethyl)-2,6-bis(1-methylethyl)phenyl ester], the inhibition at 10 µM was 65.8%.
As for `CC(C)c1cccc(C(C)C)c1OS(=O)(=O)NC(=O)C1CC1c1ccccc1` (stereo not drawn) [Example 144, (2-Phenyl-cyclopropanecarbonyl)-sulfamic acid 2,6-diisopropyl-phenyl ester], the inhibition at 10 µM (ECV-304, 6 h) worked out at 16.2%.
On the same count and under the same terms, to `COc1ccc(OC)c(CC(=O)NS(=O)(=O)Oc2c(C(C)C)cccc2C(C)C)c1` [Example 145, [(2,5-Dimethoxy-phenyl)-acetyl]-sulfamic acid 2,6-diisopropyl-phenyl ester] belongs less than 10%.
On the same count and under the same terms, to `Cc1cc(C)c(CC(=O)NS(=O)(=O)Oc2c(C(C)C)cccc2C(C)C)c(C)c1` [Example 146, [(2,4,6-Trimethyl-phenyl)-acetyl]-sulfamic acid 2,6-diisopropyl-phenyl ester] belongs 28.3%.
The same measure, in the same setting: to `COc1cc(OC)c(CC(=O)NS(=O)(=O)Oc2c(C(C)C)cccc2C(C)C)c(OC)c1` [Example 147, [(2,4,6-Trimethoxy-phenyl)-acetyl]-sulfamic acid 2,6-diisopropyl-phenyl ester] belongs less than 10%; to `CC(C)c1cccc(C(C)C)c1OS(=O)(=O)NC(=O)Cc1cccs1` [Example 148, (Thiophen-2-yl-acetyl)-sulfamic acid 2,6-diisopropyl-phenyl ester], less than 10%; to `CC(C)c1cccc(C(C)C)c1OS(=O)(=O)NC(=O)Cc1ccsc1` [Example 149, (Thiophen-3-yl-acetyl)-sulfamic acid 2,6-diisopropyl-phenyl ester], less than 10%.
Regarding `CC(C)c1cccc(C(C)C)c1OS(=O)(=O)NC(=O)Oc1ccc(F)cc1` [Example 150, Carbamic acid, [[2,6-bis(1-methylethyl)phenoxy]sulfonyl]-, 4-fluorophenyl ester], the inhibition at 10 µM was less than 10%.
As for `CC(C)c1cccc(C(C)C)c1OS(=O)(=O)NC(=O)Oc1ccc(F)cc1F` [Example 151, Carbamic acid, [[2,6-bis(1-methylethyl)phenoxy]sulfonyl]-, 2,4-difluorophenyl ester], the inhibition at 10 µM is less than 10%.
Consider `CC(C)c1cccc(C(C)C)c1OS(=O)(=O)NC(=O)Oc1c(F)c(F)c(F)c(F)c1F` [Example 152, Carbamic acid, [[2,6-bis(1-methylethyl)phenoxy]sulfonyl]-, pentafluorophenyl ester], for which the inhibition at 10 µM was less than 10%.
Still for that read-out and setting: to `CC(C)c1cccc(C(C)C)c1OS(=O)(=O)NC(=O)Oc1c(F)cccc1F` [Example 153, Carbamic acid, [[2,6-bis(1-methylethyl)phenoxy]sulfonyl]-, 2,6-difluorophenyl ester] belongs less than 10%.
With `CC(=O)OC(C(=O)NS(=O)(=O)Oc1c(C(C)C)cccc1C(C)C)c1c(C(C)C)cc(C(C)C)cc1C(C)C` (stereo not drawn) [Example 154, Acetic acid 2-(2,6-diisopropyl-phenoxysulfonylamino)-2-oxo-1-(2,4,6-triisopropyl-phenyl)-ethyl ester], under “ECV-304, 6 h”, the inhibition at 10 µM turned out to be 77.7%.
The same measure, in the same setting: to `CC(C)c1cccc(C(C)C)c1OS(=O)(=O)NC(=O)CC1CCCCC1` [Example 155, Cyclohexylacetyl-sulfamic acid 2,6-diisopropyl-phenyl ester] belongs less than 10%; to `COc1ccccc1CC(=O)NS(=O)(=O)Oc1c(C(C)C)cccc1C(C)C` [Example 156, [(2-Methoxy-phenyl)-acetyl]-sulfamic acid 2,6-diisopropyl-phenyl ester], less than 10%.
Still for that read-out and setting: to `CC(C)c1cccc(C(C)C)c1OS(=O)(=O)NC(=O)C(=O)c1ccccc1` [Example 157, (Oxo-phenyl-acetyl)-sulfamic acid 2,6-diisopropyl-phenyl ester] belongs less than 10%; to `CC(C)c1cccc(C(C)C)c1OS(=O)(=O)NC(=O)Cc1ccccc1C(F)(F)F` [Example 158, [(2-Trifluoromethyl-phenyl)-acetyl]-sulfamic acid 2,6-diisopropyl-phenyl ester], 25.9%; to `CC(C)c1cccc(C(C)C)c1OS(=O)(=O)NC(=O)C(C)c1ccccc1` (stereo not drawn) [Example 159, (2-Phenyl-propionyl)-sulfamic acid 2,6-diisopropyl-phenyl ester], 10.1%.
Still for that read-out and setting: to `CC(C)c1cccc(C(C)C)c1OS(=O)(=O)NC(=O)C(c1ccccc1)c1ccccc1` [Example 160, Diphenylacetyl-sulfamic acid 2,6-diisopropyl-phenyl ester] belongs 34.2%; to `CC(C)c1cccc(C(C)C)c1OS(=O)(=O)NC(=O)C(c1ccccc1)C1CCCC1` (stereo not drawn) [Example 161, (Cyclopentyl-phenyl-acetyl)-sulfamic acid 2,6-diisopropyl-phenyl ester], 51.5%; to `CC(C)c1cc(C(C)C)c(C(O)C(=O)NS(=O)(=O)Oc2c(C(C)C)cccc2C(C)C)c(C(C)C)c1` (stereo not drawn) [Example 162, [Hydroxy-(2,4,6-triisopropyl-phenyl)-acetyl]-sulfamic acid 2,6-diisopropyl-phenyl ester], 75.3%.
Consider `CC(C)c1cccc(C(C)C)c1OS(=O)(=O)NC(=O)C(c1ccccc1)(c1ccccc1)c1ccccc1` [Example 163, Triphenylacetyl-sulfamic acid 2,6-diisopropyl-phenyl ester], for which the inhibition at 10 µM (ECV-304, 6 h) came to 62.4%.
Same read-out and setting: to `CC(C)c1cccc(C(C)C)c1OS(=O)(=O)NC(=O)OC1[C@@H](C(C)C)CCC[C@H]1C(C)C` (stereo partly drawn) [Example 164, Carbamic acid, [[2,6-bis(1-methylethyl)phenoxy]sulfonyl]-, (2R,6S)-2,6-bis(1-methylethyl)cyclohexyl ester] belongs 55.2%.
